Measured values reported in paper PMC5839409, “Targeting intracellular B2 receptors using novel cell-penetrating antagonists to arrest growth and induce apoptosis in human triple-negative breast cancer” (Oncotarget, 2018).
Square brackets hold non-standard residues; d marks the D form. Peptide text beside a SMILES is read from it. Oic = O=C(O)[C@@H]1C[C@@H]2CCCC[C@@H]2N1; Hyp = O=C(O)[C@@H]1C[C@@H](O)CN1; dTic = O=C(O)[C@H]1Cc2ccccc2CN1; 2Thi = N[C@@H](Cc1cccs1)C(=O)O

Key:
MDA-MB-231 cells [1] = test: PI staining cell cycle analysis by flow cytometry; type: cell-based, human; conditions: 24 h treatment; HOE 140 up to 100 μM
Procedure: MDA-MB-231 were plated at 500,000/plate in 10 cm plates containing medium (10% FBS/DMEM), and allowed to adhere for about 18 h. Thereafter, cells were serum-starved and treated with and without the B2RAs at the indicated concentrations for 24 h. At the end of treatments, cells were harvested, rinsed and fixed with ice cold ethanol 95%, for 2 h at 4°C. Fixed cells were rehydrated with 800 µl PBS for 30 min, and then washed again with PBS to remove all traces of ethanol. Cells were treated with RNase for 30 min prior to staining. PI was added to cell suspension at a concentration of 15 µg/ml and incubated overnight at 4°C. PI staining was assessed by flow cytometry using a FACSCanto II flow cytometer (BD Biosciences).

[2] = Distribution coefficient n-octanol/PBS pH 7.4, shake flask; conditions: pH 7.4, Distribution coefficient log D, n-octanol/PBS (pH 7.4), shake flask, RP-HPLC quantification
Procedure: Equal volumes of octanol and PBS (137 mM NaCl, 2.7 mM KCl, 10 mM Na2HPO4, 2 mM KH2PO4, pH 7.4), were mixed and allowed to equilibrate for 24h. The layers were then separated and stored at 4°C. At testing, the compounds (200 µM) was added to 200 µl of aqueous phase and mixed with an equal volume of octanol by vortexing for 2 min. The octanol/buffer solution was centrifuged for 5 min at 1000 x g. After separation into aqueous and octanol phases, compound content of the aqueous and octanol phases was quantified by RP-HPLC (Agilent1100 series). […] All octanol/buffer distribution studies were performed in duplicate. The octanol/buffer coefficient was calculated as the ratio of octanol layer to the buffer layer.

MDA-MB-231 cells [3] = test: Western blot of cell cycle, apoptosis and p38 proteins; type: cell-based, human
Procedure: For western blot analysis, appropriate amount of cell lysates or membrane and nuclear fractions (25–50 µg protein) were denatured, resolved on 9–12% SDS–PAGE and electrotransferred onto PVDF membranes. Blots were blocked using 5% nonfat dry milk and probed using appropriate primary antibodies in blocking buffer overnight at 4°C.

MDA-MB-231 cells [4] = test: Annexin V/PI apoptosis and beta-galactosidase senescence assays; type: cell-based, human; conditions: Annexin V and active caspase-3 positivity 24h; β-galactosidase 72h
Procedure: The effect of B2RAs on cellular senescence was assessed using the Senescence β-Galactosidase Staining Kit (Cell Signaling). MDA-MB-231 cells were plated at 500 000 cells/well in 6-well plates, and serum-starved right before the beginning of treatments. Cells were treated with and without the B2RAs at the indicated concentrations for 72 h. At the end of treatment, surviving cells were fixed with 2% formaldehyde, 0.2% glutaraldehyde for 15 min at room temperature. Fixed cells were then washed and stained with fresh senescence-associated β-galactosidase stain solution (sodium phosphate buffer, pH 6.0, containing 1mg of X-gal (5-bromo-4-chloro-3-indolyl-β-d-galactopyranoside)/ml 40 mM citric acid, 5 mM potassium ferrocyanide, 5 mM potassium ferricyanide, 150 mM NaCl, 2 mM MgCl2) at 37°C. Staining was detected by light microscopy. As a positive control for senescence, we serum starved porcine cerebral microvascular endothelial cells (pCMVEC) (kindly provided by S Chemtob) for 48 h.
MDA-MB-231 and COS-1 cells were plated at 500,000/well in 6-well plates containing medium (10% FBS/DMEM), and allowed to adhere for about 18 h. On the next day, cells were serum-starved and then treated with and without the B2RAs at the indicated concentrations for 24 h. To assess induction of apoptosis due to treatment, we used the Annexin-V-FLUOS Staining kit (Roche) according to manufacturer’s specifications. Briefly, at the end of treatments, cells were harvested, rinsed and incubated in 100 µl of Annexin-V-FLUOS labeling solution (containing 2 µl of Annexin-V-Fluos reagent and 1 µl of PI (15 µg/ml)) for 15 min at room temperature. Cells were analyzed on a FACSCanto II flow cytometer (BD Biosciences). Early stage apoptosis was measured using annexin V-Fluos (RocheMolecular Biochemicals) in conjunction with PI (Sigma) to distinguish among early apoptosis and late apoptosis/necrosis. Bar diagram showing the distribution of early, late/necrotic cell populations.

MDA-MB-231 cells [5] = test: Cellular incorporation of B2RAs by LC-MS/MS; conditions: 2.5 µM antagonist, 37°C
Procedure: Permeability of MDA-MB-231 cells to B2RAs was evaluated by either confocal microscopy or LC-MS/MS analyses. […] Mass spectrometry. […] At the end of treatments, cells underwent an acid wash to facilitate the release of surface bound ligands. Cell contents were released from hypotonic lysis using a 40:60 mixture of 15 mM Tris-HCl pH 7.4 / methanol. Cell lysates were next sonicated and subjected to protein precipitation following addition of 0.1% v/v formic acid. Precipitated proteins were removed by centrifugation and supernatants were concentrated using a Speedvac centrifugal evaporator. The sample was subjected to quantification using LC-MS/MS on a triple quadrupole mass spectrometer (Agilent G6410B). A calibration curve made from nine different concentrations of the reference compounds dissolved in suitable HPLC mobile phase solvents, was used to estimate antagonist intracellular content in each sample. The limit of quantification was 75 fmol (1 nM/75 µl).

MDA-MB-231 cells [6] = test: MTT proliferation assay; type: cell-based, human; conditions: B2R shRNA knockdown MDA-MB-231 cells vs scrambled shRNA
Procedure: Cell proliferation assay on MDA-MB-231 cells was determined with colorimetric MTT as we described. Briefly, cells were seeded in a 96 wells plate at 2,000 cells/well in DMEM media supplemented with 10% FBS for 24h at 37°C. Cells were then incubated with and without the B2RAs at the indicated concentrations for the time shown. At the end of treatment period, MTT (0.25 mg/ml) was added to the cells and incubated for 1h30 at 37°C. Thereafter, the cell medium was removed, the formazan product solubilized in acidified isopropanol (100 µl of 1N HCl/anhydrous isopropanol 1:25) and the absorbance determined at 570 nm with an ELISA microplate reader (Spectra Max Plus, Molecular Devices, Sunnyvale, CA). For assessing the cytotoxicity of B2RAs and chemotherapeutic agents (carmustine, doxorubicin, carboplatin, temozolomide and paclitaxel), cells were grown to confluency in multi-well plates and exposed to starving media (DMEM without FBS) for 24h before beginning of the antagonist treatment. Cells were then incubated with MTT and treated exactly as described above. Cell viability was expressed as a percentage of optical density (OD) values obtained upon treatment relative to control.

MDA-MB-231 cells [7] = test: Drug-drug synergy experiments (MTT, combination index); type: cell-based, human; conditions: IC25 ratios, 72h, CalcuSyn
Procedure: Interactions (synergy, additive, antagonistic activities) between CP-B2RAs (FR173657 and NG68) and chemotherapeutic drugs (doxorubicin and paclitaxel) were evaluated using MTT standard assays. Twenty-four hours after seeding, cells were treated with CP-B2RAs, the other testing drug, or in combination. For combination testing, CP-B2RAs or the other testing drugs were added to plate in triplicate wells in ratios of IC25 (IC25A: IC25B), and cells are incubated in drug-treated medium for 72h and cell viability determined by MTT. Synergy was determined by calculating combination index (CI) value with the formula CI = (CA,X / ICx,A) + (CB,X / ICx,B), where CA,X and CB,X are concentrations of drug A and drug B used in combination to achieve x% drug effect. ICx,A and ICx,B are concentrations for single agents to achieve the same effect. A CI of less than, equal to, and more than 1 indicates synergy, additivity, and antagonism, respectively.

MDA-MB-231 cells [8] = test: Anchorage-dependent clonogenic assay; type: cell-based, human; conditions: 10-14 days
Procedure: MDA-MB-231 cells were plated at 200 cells/well in a six-well dish in 2 ml DMEM medium containing 10% FBS. […] After 10 to 14 days, colonies were fixed and stained with 0.5% methylene blue in 50% ethanol. Excess of staining solution was removed carefully with tap water and the plates were dried overnight. Colony counting and densitometric analyses (to measure total colony numbers and surface areas) were performed using the Image Pro Plus 5.1 software.

[9] = target: T1, B2R endogenously expressed in the human de-endothelized umbilical veins (Homo sapiens, UniProt P30411); test: Functional bioassay on isolated human de-endothelized umbilical veins (hUV); conditions: read-out: biological activity; agonists, isometric contraction of human vessels
T1 construct: B2R endogenously expressed in the human de-endothelized umbilical veins (hUV); from tissue; host or cells: human umbilical vein, de-endothelized
T1 sequence (P30411 1-391): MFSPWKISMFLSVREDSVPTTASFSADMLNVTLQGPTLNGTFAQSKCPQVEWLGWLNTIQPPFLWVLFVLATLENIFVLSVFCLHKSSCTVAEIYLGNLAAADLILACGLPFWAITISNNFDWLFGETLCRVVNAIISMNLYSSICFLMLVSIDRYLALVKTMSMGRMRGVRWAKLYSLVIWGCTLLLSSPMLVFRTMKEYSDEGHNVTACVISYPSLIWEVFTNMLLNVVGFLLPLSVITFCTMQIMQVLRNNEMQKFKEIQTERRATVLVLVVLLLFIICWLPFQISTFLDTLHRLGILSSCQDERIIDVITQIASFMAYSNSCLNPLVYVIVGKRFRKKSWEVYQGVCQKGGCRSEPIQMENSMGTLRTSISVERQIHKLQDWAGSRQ
Procedure: For testing the pharmacological activities of agonists, complete concentration-contractile response curves to agents were done at the B2R endogenously expressed in the human de-endothelized umbilical veins (hUV), as previously described. EC50 values (or potencies) of the agonists were calculated from the obtained concentration-response curves. […] The collection of umbilical cords for the bioassays was approved by the local ethical committee, and maternal consent was obtained in every case.

human B2R = target: T2, human B2R (Homo sapiens, UniProt P30411); test: Radioligand competition binding on live adherent HEK-293T cells transiently transfected with hB2R; conditions: read-out: binding affinity; agonists, HEK-293T cells transfected with B2R
T2 construct: expressed in transfected cells; host or cells: HEK-293T
T2 sequence (P30411 1-391): T1 sequence (P30411 1-391)

[10] = 24h treatment, whole-cell lysates

Row | Structure (SMILES) | cell cycle distribution (MDA-MB-231 cells [1]) | logD [2] | expression of BAD and p27Kip1 (MDA-MB-231 cells [3]; [10]) | levels of MAPK and cyclin A (MDA-MB-231 cells [3]; [10]) | phosphorylation of p38 (MDA-MB-231 cells [3]; over time) | induction of apoptosis / senescence (MDA-MB-231 cells [4]) | Cellular incorporation (MDA-MB-231 cells [5]; 15 min) | Cellular incorporation (MDA-MB-231 cells [5]; 4 h) | cytostatic activity after B2R downregulation (MDA-MB-231 cells [6]) | combination index (CI) (MDA-MB-231 cells [7]; combination with doxorubicin) | combination index (CI) (MDA-MB-231 cells [7]; combination with paclitaxel) | colony formation (antagonist effect) (MDA-MB-231 cells [8]; 1 to 100 µM (FR173657 up to 25 µM)) | EC50 [9] | IC50 (human B2R) | colony number (agonist effect) (MDA-MB-231 cells [8]) | colony surface area (agonist effect) (MDA-MB-231 cells [8])
1 | N=C(N)NCCC[C@H](NC(=O)[C@@H]1C[C@@H]2CCCC[C@@H]2N1C(=O)[C@H]1Cc2ccccc2CN1C(=O)[C@H](CO)NC(=O)[C@H](Cc1cccs1)NC(=O)CNC(=O)[C@@H]1C[C@@H](O)CN1C(=O)[C@@H]1CCCN1C(=O)[C@H](CCCNC(=N)N)NC(=O)[C@@H](CCCNC(=N)N)NC(=O)CNC(=O)CNC(=O)CNC(=O)[C@@H](CCCNC(=N)N)NC(=O)[C@@H](CCCNC(=N)N)NC(=O)[C@@H](CCCNC(=N)N)NC(=O)[C@@H](CCC(N)=O)NC(=O)[C@@H](CCCNC(=N)N)NC(=O)[C@@H](CCCNC(=N)N)NC(=O)[C@@H](CCCCN)NC(=O)[C@@H](CCCCN)NC(=O)[C@@H](CCCNC(=N)N)NC(=O)CN)C(=O)O [D-Tat-HOE 140 (NG68)] (H-G[dR][dK][dK][dR][dR][dQ][dR][dR][dR]GGG[dR]RP[Hyp]G[2Thi]S[dTic][Oic]R-OH; N-terminus and C-terminus assumed) | tend to induce G0/G1 cell cycle arrest | -3.02 | increased expression | decreased the levels of MAPK and cyclin A | significantly increased the phosphorylation | underwent apoptosis, but not senescence | 5 pmol/10^6 cells | 14 pmol/10^6 cells | significantly attenuated | below 1 | ~1 | concentration-responsive clonal repression | – | – | – | –
2 | N=C(N)NCCC[C@H](NC(=O)[C@H](Cc1ccccc1)NC(=O)[C@@H]1CCCN1C(=O)[C@H](CO)NC(=O)[C@H](Cc1ccccc1)NC(=O)CNC(=O)[C@@H]1CCCN1C(=O)[C@@H]1CCCN1C(=O)[C@H](CCCNC(=N)N)NC(=O)CNC(=O)CNC(=O)CNC(=O)[C@@H](CCCNC(=N)N)NC(=O)[C@@H](CCCNC(=N)N)NC(=O)[C@@H](CCCNC(=N)N)NC(=O)[C@@H](CCC(N)=O)NC(=O)[C@@H](CCCNC(=N)N)NC(=O)[C@@H](CCCNC(=N)N)NC(=O)[C@@H](CCCCN)NC(=O)[C@@H](CCCCN)NC(=O)[C@@H](CCCNC(=N)N)NC(=O)CN)C(=O)O [DTat-BK] (H-G[dR][dK][dK][dR][dR][dQ][dR][dR][dR]GGGRPPGFSPFR-OH; N-terminus and C-terminus assumed) | – | – | – | – | – | – | – | – | – | – | – | – | 350 ± 1 nM | 110 ± 4 nM | did not increase colony number | increase in colony surface area
